Measured values from the supplement of paper PMC8633005.

Assays:
Assay in all cases: drug sensitivity score (DSS) (DSS (unitless, 0-50 scale)); higher = more sensitive (stronger viability inhibition); extreme values may be limits of the assay
Conditions in all cases: 72 h; culture: 2D
Bowes = system: Bowes
Outline: (§1)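 Viability was measured by CellTiter-Glo luminescence after 72 h at 37 °C in 384-well plates holding a 527-compound oncology library, with patient-derived melanoma cultures (1000–1500 cells per well) and melanoma cell lines grown in 2D. Every compound was tested at five concentrations spanning a 10,000-fold range. The drug sensitivity score, a modified area under the curve, came from dose-response curves fitted with in-house Breeze software.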

FM-MEL-2 = system: FM-MEL-2
Outline: as §1

FM-MEL-3 = system: FM-MEL-3
Outline: as §1

FM-MEL-6 = system: FM-MEL-6
Outline: as §1

SK-MEL-28 = system: SK-MEL-28
Outline: as §1

SK-MEL-2 = system: SK-MEL-2
Outline: as §1

WM165 = system: WM165
Outline: as §1

WM852 = system: WM852
Outline: as §1

| SMILES | drug sensitivity score (Bowes) | drug sensitivity score (FM-MEL-2) | drug sensitivity score (FM-MEL-3) | drug sensitivity score (FM-MEL-6) | drug sensitivity score (SK-MEL-28) | drug sensitivity score (SK-MEL-2) | drug sensitivity score (WM165) | drug sensitivity score (WM852) |
| --- | --- | --- | --- | --- | --- | --- | --- | --- |
| C[C@@H](Nc1cc(F)cc(F)c1)c1cc(C(=O)N(C)C)cc2c(=O)cc(N3CCOCC3)oc12 [AZD-8186] | 2.6 | 2.4 | 0 | 2.2 | 3.7 | 0 | 0.4 | 0.8 |
| NC[C@@](O)(c1ccc(Cl)cc1)c1ccc(-c2cn[nH]c2)cc1 | 0 | 1.4 | 0 | 4 | 1.7 | 0 | 2.1 | 0.6 |
| CCN(CC)CCNC(=O)c1c(C)[nH]c(/C=C2\C(=O)Nc3ccc(-c4csc(-c5ccccc5)n4)cc32)c1C [Amcasertib] | 0.2 | 7.4 | 4.1 | 8.8 | 1.9 | 0 | 4.5 | 8.2 |
| CCOC(=O)C1=CCCC[C@H]1S(=O)(=O)Nc1ccc(F)cc1Cl [Resatorvid] | 0 | 0 | 0 | 0 | 0 | 0 | 0 | 0 |
| C[C@@H]1CN(C(=O)c2ccc(NC(=O)c3cc(O[C@H](C)c4c(Cl)ccc(F)c4Cl)c(N)nn3)cc2)C[C@H](C)N1 [Ensartinib] | 1.6 | 0.5 | 2.6 | 1.5 | 0 | 0 | 0.7 | 0.4 |
| COCC1(CO)C(=O)C2CCN1CC2 (stereo not drawn) [APR-246] | 0 | 0 | 0 | 0 | 0 | 0 | 0 | 0 |
| O=C(Nc1cccc(NC(=O)c2cccc(O)c2O)c1)c1cccc(O)c1O [MST-312] | 11.4 | 6.1 | 10.3 | 4 | 8.4 | 6.7 | 16 | 6.8 |
| CC(C)(C)c1nc(-c2cccc(NS(=O)(=O)c3c(F)cccc3F)c2F)c(-c2ccnc(N)n2)s1 [Dabrafenib] | 1.1 | 1.5 | 2.7 | 0 | 20.5 | 0.9 | 18.1 | 1.1 |
| CCNC(=O)C[C@@H]1N=C(c2ccc(Cl)cc2)c2cc(OC)ccc2-n2c(C)nnc21 [Molibresib] | 3.8 | 3.8 | 4.8 | 5 | 1.8 | 0.5 | 6.5 | 0 |
| O=C(NOC[C@H](O)CO)c1ccc(F)c(F)c1Nc1ccc(I)cc1F | 0.5 | 14.5 | 26.8 | 11.4 | 18 | 11.1 | 18.6 | 3.8 |
| O=C(NC[C@H](O)CN1CCc2ccccc2C1)c1cc(NC2COC2)ncn1 | 4.7 | 0.4 | 1.4 | 0.5 | 0.3 | 0 | 0 | 0 |
| CN1CCN(CCOc2cc(OC3CCOCC3)c3c(Nc4c(Cl)ccc5c4OCO5)ncnc3c2)CC1 [Saracatinib] | 0.3 | 2.3 | 0.8 | 0.9 | 4 | 0 | 2.8 | 1.8 |
| CC1(C)CCC(c2ccc(Cl)cc2)=C(CN2CCN(c3ccc(C(=O)NS(=O)(=O)c4ccc(N[C@H](CCN5CCOCC5)CSc5ccccc5)c(S(=O)(=O)C(F)(F)F)c4)cc3)CC2)C1 [Navitoclax] | 0 | 4 | 12 | 0 | 0 | 0 | 0 | 0 |
| COc1ccc(S(=O)(=O)Nc2cccnc2Nc2ccc(O)cc2)cc1 [ABT-751] | 11 | 4 | 5.7 | 9.2 | 5.7 | 9 | 10.3 | 8.9 |
| CC(C)[C@H]1C(=O)N[C@@H](CCCNC(=N)N)C(=O)NCC(=O)N[C@@H](CC(=O)O)C(=O)N[C@H](Cc2ccccc2)C(=O)N1C [Cilengitide] | 0 | 0.7 | 0 | 1 | 2 | 0 | 0 | 2.5 |
| O=C1CCc2c(Oc3ccc4c(c3)[C@@H]3[C@H](O4)[C@H]3c3nc4cc(C(F)(F)F)ccc4[nH]3)ccnc2N1 [BGB-283] | 4 | 12.1 | 16.5 | 6.2 | 16.5 | 7.4 | 15.6 | 4.5 |
| CC1(C)NC(=O)N(c2ccc([N+](=O)[O-])c(C(F)(F)F)c2)C1=O [Nilutamide] | 1.1 | 0 | 0.4 | 0 | 0 | 0 | 0 | 0 |
| CN(C)CCCOc1ccc(-c2ccc3ncc4c(c3c2)n(C2CCOCC2)c(=O)n4C)cn1 [AZD0156] | 0 | 0.4 | 0 | 0 | 0 | 0 | 0.3 | 0 |
| NS(=O)(=O)OC[C@@H]1C[C@@H](n2ccc3c(N[C@H]4CCc5ccccc54)ncnc32)C[C@@H]1O [Pevonedistat] | 10.9 | 6.2 | 12.4 | 7.8 | 7 | 11.7 | 20 | 11.7 |
| NS(=O)(=O)NCCNc1nonc1/C(=N/O)Nc1ccc(F)c(Br)c1 [Epacadostat] | 0 | 0.5 | 1 | 0.5 | 0 | 0 | 0 | 0.7 |
| CCCCC(=O)OCC(=O)[C@]1(O)Cc2c(O)c3c(c(O)c2[C@@H](O[C@H]2C[C@H](NC(=O)C(F)(F)F)[C@H](O)[C@H](C)O2)C1)C(=O)c1c(OC)cccc1C3=O [Valrubicin] | 6.4 | 6.8 | 7.2 | 9.2 | 8.3 | 8.5 | 21.5 | 5.1 |

| SMILES | drug sensitivity score (Bowes) | drug sensitivity score (FM-MEL-2) | drug sensitivity score (FM-MEL-3) | drug sensitivity score (FM-MEL-6) | drug sensitivity score (SK-MEL-28) | drug sensitivity score (SK-MEL-2) | drug sensitivity score (WM165) | drug sensitivity score (WM852) |
| --- | --- | --- | --- | --- | --- | --- | --- | --- |
| C[C@H]1O[C@@H](O[C@H]2[C@@H](O)C[C@H](O[C@H]3[C@@H](O)C[C@H](O[C@H]4CC[C@@]5(C)[C@H](CC[C@@H]6[C@@H]5C[C@@H](O)[C@]5(C)[C@@H](C7=CC(=O)OC7)CC[C@]65O)C4)O[C@@H]3C)O[C@@H]2C)C[C@H](O)[C@@H]1O [Digoxin] | 12.9 | 3.3 | 13.3 | 9.7 | 6.6 | 5.9 | 10.6 | 10.4 |
| CS(=O)(=O)c1ccc(C(=O)Nc2ccc(Cl)c(-c3ccccn3)c2)c(Cl)c1 [Vismodegib] | 0 | 0 | 0 | 0 | 0 | 0 | 0 | 0 |
| CC(C)C[C@@H](C(=O)N[C@H](C(=O)OC1CCCC1)c1ccccc1)[C@H](O)C(=O)NO [Tosedostat] | 1.4 | 6.3 | 6.3 | 7.9 | 6.7 | 5.3 | 6.8 | 0.7 |
| CCNC(=O)c1noc(-c2cc(C(C)C)c(O)cc2O)c1-c1ccc(CN2CCOCC2)cc1 [Luminespib] | 15.2 | 10.7 | 21.4 | 8.1 | 9.2 | 9.3 | 20.3 | 9.7 |
| O=C1CN2Cc3c(ccc(Cl)c3Cl)N=C2N1 [Anagrelide] | 9.6 | 0 | 1.8 | 0 | 0 | 0 | 0 | 0 |
| CC(C)NC[C@@H](C(=O)N1CCN(c2ncnc3c2[C@H](C)C[C@H]3O)CC1)c1ccc(Cl)cc1 [Ipatasertib] | 0 | 2.1 | 0.3 | 0.9 | 1.7 | 0 | 2.2 | 0 |
| CCN(CC)Cc1ccc2cc(COC(=O)Nc3ccc(C(=O)NO)cc3)ccc2c1 [Givinostat] | 2 | 4.3 | 5.2 | 5.8 | 4.9 | 5.6 | 6.6 | 2.2 |
| Cn1cncc1[C@@](N)(c1ccc(Cl)cc1)c1ccc2c(c1)c(-c1cccc(Cl)c1)cc(=O)n2C [Tipifarnib] | 21.1 | 7.4 | 11.2 | 6.2 | 5 | 3.6 | 10.4 | 3.4 |
| Nc1nccc(-c2c(-c3ccc(F)cc3)ncn2C2CCCCC2)n1 | 0 | 0 | 0 | 0 | 0 | 0 | 0 | 0 |
| Cc1ccc(=O)n(-c2ccccc2)c1 [Pirfenidone] | 0 | 0 | 0 | 0 | 0 | 0 | 0 | 0 |
| CC(C)C[C@H](NC(=O)[C@H](CCc1ccccc1)NC(=O)CN1CCOCC1)C(=O)N[C@@H](Cc1ccccc1)C(=O)N[C@@H](CC(C)C)C(=O)[C@@]1(C)CO1 [Carfilzomib] | 31.7 | 11 | 17.4 | 20.4 | 17 | 22.5 | 29.6 | 24.5 |
| C/C(=C\c1csc(C)n1)[C@@H]1C[C@@H]2O[C@]2(C)CCC[C@H](C)[C@H](O)[C@@H](C)C(=O)C(C)(C)[C@@H](O)CC(=O)N1 [Ixabepilone] | 8.5 | 0.8 | 5 | 3.7 | 2.3 | 2.9 | 3.6 | 6.1 |
| COc1cc(C)c(/C=C/C(C)=C/C=C/C(C)=C/C(=O)O)c(C)c1C [Acitretin] | 2.6 | 0 | 1.3 | 1.6 | 0 | 0 | 0 | 0 |
| CN1CC[C@H](c2c(O)cc(O)c3c(=O)cc(-c4ccccc4Cl)oc23)[C@H](O)C1 [Alvocidib] | 19.9 | 12.6 | 18.6 | 17.7 | 18.1 | 16.9 | 20.4 | 16.4 |
| O=C(Nc1c[nH]nc1-c1nc2ccc(CN3CCOCC3)cc2[nH]1)NC1CC1 [AT9283] | 8 | 0 | 0 | 0 | 2.9 | 2.3 | 8 | 2.9 |
| CN1CCN(c2nc(C3=C(c4c[nH]c5ccccc45)C(=O)NC3=O)c3ccccc3n2)CC1 [Sotrastaurin] | 0 | 3.2 | 0.3 | 3.7 | 0 | 0 | 0 | 0 |
| NCC(=O)Nc1ccc(-n2nc(C(F)(F)F)cc2-c2ccc3c(ccc4ccccc43)c2)cc1 | 0 | 0.4 | 0 | 0.4 | 2.5 | 0 | 3.4 | 0 |
| COc1cccc2c1c(O)c(C(=O)N(C)c1ccc(C(F)(F)F)cc1)c(=O)n2C [Tasquinimod] | 0 | 0.9 | 0.2 | 0.4 | 0 | 0 | 0 | 0 |
| N#Cc1ccnc(N2C(=O)CC[C@H]2C(=O)N(c2cncc(F)c2)[C@H](C(=O)NC2CC(F)(F)C2)c2ccccc2Cl)c1 [Ivosidenib] | 0 | 0 | 0 | 0.3 | 0 | 0 | 0 | 0 |
| CC[C@@H]1CN(C(=O)NCC(F)(F)F)C[C@@H]1c1cnc2cnc3[nH]ccc3n12 [Upadacitinib] | 0 | 3.6 | 3.1 | 3.6 | 0.3 | 0 | 0 | 2.1 |
